Data from patent US20110070232A1, “Combination Therapy with an Antitumor Alkaloid” (Pharma Mar, S.A., priority 2008, published 2011).
Converted amounts (≈) assume the structure as drawn. Like-named read-outs stand apart in the source and are kept apart here.

Experiments:
[1] = test system: AGS human gastric carcinoma cell line; assay: IC50 determination, MTS assay, 72 h (Example 1); type: cell-based; conditions: 72 hours of drug exposure
In short: (§1)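 Cells are seeded at 10,000 per well and allowed to attach for 24 h, then exposed to compound for 72 h. Viability is read by MTS/PMS, 4 h at 37 °C, with OD at 490 nm, and referenced to a time-0 plate. IC50 is averaged from two to four assays.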

[2] = test system: Hs746T human gastric carcinoma cell line; assay: IC50 determination, MTS assay, 72 h (Example 1); type: cell-based; conditions: 72 hours of drug exposure
In short: as §1

[3] = test system: HGC-27 human gastric carcinoma cell line; assay: IC50 determination, MTS assay, 72 h (Example 1); type: cell-based; conditions: 72 hours of drug exposure
In short: as §1

UM-UC-3 tumors = type: in vivo, mice; conditions: mg/kg/day: PM00104 0.90 IV, cisplatin 5 IP, gemcitabine 180 IP, paclitaxel 15 IP
Method: Female athymic nude mice (Harlan Sprague Dawley, Madison, Wis.) were utilized for all experiments. Animals were housed in ventilated rack caging with food and water ad libitum. The mice were acclimated for at least 5 days prior to tumor implantation with a tumor cell suspension.
The tumor model used in these studies was UM-UC-3 cell line, which was obtained from the ATCC (Manassas, Va.).
UM-UC-3 cells were grown in minimum essential medium (Eagle's) supplemented with 10% FBS, 1.5 g/L sodium bicarbonate, 0.1 mM non-essential amino acids, 1 mM sodium pyruvate, and 2 mM L-glutamine. Each animal was implanted SC on the right flank, using a trochar and 1 cc syringe, with 5×10^6 UM-UC-3 cells, from in vitro passage 17, in a 0.2 mL suspension of 50% Matrigel and 50% serum free medium, without antibiotics. Bacterial cultures were performed on aliquots of the cells prepared for implantation.
Treatments were initiated on DPI 15.
(§2) Tumor size measurements were recorded twice weekly from the treatment initiation until the termination of the study.
(§3) Mean, standard deviation and standard error of the mean were determined for tumor volume for all animal groups at all assessments. Student's t test was performed on tumor volumes at each measurement day, including at the end of the study, to determine whether there were any statistically significant differences between combination treatment groups and single monotherapy treatment groups.

[4] = test system: NCI-H460 (lung cancer) cell line; assay: IC50 determination, MIT (tetrazolium) assay, 72 h (Example 18); type: cell-based, human; conditions: NCI-H460, 72 hours of drug exposure
Method: (§4) Before plating, cell cultures were trypsinized and cell number estimated using an automated flow cytometer.
(§5) Cells were harvested and seeded in 96 well microtiter plates at the appropriate cell density (5,000-10,000 cells) in 150 μL of media and incubated for 24 hours to allow the cells to attach before drug addition.
(§6) After the incubation period (72 hours), 50 μL of MIT solution was added to each microtiter well and incubated for further 8 hours at 37° C. The culture medium was then removed and 50 μl, of DMSO were added to dissolve the MIT crystals. Optical densities were read at 540 nm on spectrophotometer microplate reader.
(§7) IC50 values were calculated from an average of two to four assays for each of the test agents.

[5] = test system: A-549 (lung cancer) cell line; assay: as above; type: cell-based, human
Method: as §4, §5, §6, §7

[6] = test system: NCI-H23 (lung cancer) cell line; assay: as above; type: cell-based, human; conditions: NCI-H23, 72 hours of drug exposure
Method: NCI-H23 cells were grown in RPMI supplemented with 10% Fetal Bovine Serum (FBS), 1% penicillin/streptomycin and 2 mM L-glutamine.
as §4, §5, §6, §7

BxPC-3 tumors = type: in vivo, mice; conditions: mg/kg/day: PM00104 0.90 IV, gemcitabine 180 IP
Method: Female CB17.SCID mice (Charles River Lab.) were utilized for all experiments. Animals were housed in ventilated rack caging with food and water ad libitum. The mice were acclimated for at least 5 days prior to tumor implantation with a tumor cell suspension.
The tumor model used in these studies was BxPC-3 cell line, which was obtained from the ATCC (Manassas, Va.).
Bacterial cultures were performed on aliquots of the cells prepared for implantation.
Treatments were initiated on DPI 14.
as §2, §3

[7] = test system: MDA-MB-231 (breast cancer) cell line; assay: IC50 determination, MIT (tetrazolium) assay, 72 h (Example 18); type: cell-based; conditions: Homo sapiens; MDA-MB-231, 72 hours of drug exposure
Method: as §4, §5, §6, §7

[8] = test system: MCF-7 (breast cancer) cell line; assay: as above; type: cell-based; conditions: Homo sapiens, MCF7; MCF-7, 72 hours of drug exposure
Method: as §4, §5, §6, §7

[9] = test system: BT-474 (breast cancer) cell line; assay: as above; type: cell-based; conditions: Homo sapiens, BT-474, 72 h
Method: BT-474 cells were grown in RPMI supplemented with 1% ITS (insulin, transferrin and selenium), 10% Fetal Bovine Serum (FBS), 1% penicillin/streptomycin and 2 mM L-glutamine.
as §4, §5, §6, §7

SMILES: O=c1[nH]cc(F)c(=O)[nH]1 [5-FU, 5-fluorouracil]
- IC50 ([1]; Homo sapiens, read-out: IC50): 0.532 µg/mL (≈ 4.09 µM)
- IC50 ([2]; Homo sapiens, read-out: IC50): 5.46 µg/mL (≈ 42 µM)
- IC50 ([3]; Homo sapiens, read-out: IC50): 0.434 µg/mL (≈ 3.34 µM)

SMILES: N.N.[Cl][Pt][Cl] [Cisplatin, cisplatin]
- % Inhibition (UM-UC-3 tumors; day 15): −2.2%
- % T/C on day (UM-UC-3 tumors; day 15): 102.2%
- % Inhibition (UM-UC-3 tumors; day 20): 23.0%
- % T/C on day (UM-UC-3 tumors; day 20): 77.0%
- % Inhibition (UM-UC-3 tumors; day 22): 24.2%
- % T/C on day (UM-UC-3 tumors; day 22): 75.8%
- % Inhibition (UM-UC-3 tumors; day 26): 38.2%
- % T/C on day (UM-UC-3 tumors; day 26): 61.8%
- % Inhibition (UM-UC-3 tumors; day 29): 34.0%
- % T/C on day (UM-UC-3 tumors; day 29): 66.0%
- % Inhibition (UM-UC-3 tumors; day 34): 55.3%
- % T/C on day (UM-UC-3 tumors; day 34): 44.7%
- % Inhibition (UM-UC-3 tumors; day 40): 36.2%
- % T/C on day (UM-UC-3 tumors; day 40): 63.8%
- % Inhibition (UM-UC-3 tumors; day 43): 33.0%
- % T/C on day (UM-UC-3 tumors; day 43): 67.0%
- IC50 [4]: 25000 nM
- IC50 ([5]; A-549, 72 hours of drug exposure): 50000 nM
- IC50 [6]: 10000 nM
- IC50 [1]: 25.5 µg/mL
- IC50 [2]: 39.2 µg/mL
- IC50 [3]: 25.6 µg/mL

SMILES: Nc1ccn([C@@H]2O[C@H](CO)[C@@H](O)C2(F)F)c(=O)n1 [Gemcitabine, gemcitabine]
- % Inhibition (BxPC-3 tumors; day 14): 3.1%
- % T/C on day (BxPC-3 tumors; day 14): 96.9%
- % Inhibition (BxPC-3 tumors; day 16): −44.6%
- % T/C on day (BxPC-3 tumors; day 16): 144.6%
- % Inhibition (BxPC-3 tumors; day 19): −15.6%
- % T/C on day (BxPC-3 tumors; day 19): 115.6%
- % Inhibition (BxPC-3 tumors; day 22): 25.5%
- % T/C on day (BxPC-3 tumors; day 22): 74.5%
- % Inhibition (BxPC-3 tumors; day 26): −6.1%
- % T/C on day (BxPC-3 tumors; day 26): 106.1%
- % Inhibition (BxPC-3 tumors; day 29): 20.7%
- % T/C on day (BxPC-3 tumors; day 29): 79.3%
- % Inhibition (BxPC-3 tumors; day 34): 31.3%
- % T/C on day (BxPC-3 tumors; day 34): 68.7%
- % Inhibition (BxPC-3 tumors; day 40): −33.9%
- % T/C on day (BxPC-3 tumors; day 40): 133.9%
- IC50 ([4]; Homo sapiens): 1 nM
- IC50 ([5]; Homo sapiens, A549, 72 h): 0.5 nM
- IC50 ([6]; Homo sapiens): 0.28 nM
- IC50 [7]: 24 nM
- IC50 [8]: 1.3 nM

SMILES: COc1c(C)cc2c(c1O)[C@@H]1[C@@H]3Cc4c(OC(C)=O)c(C)c5c(c4[C@H](CNC(=O)/C=C/c4cccc(C(F)(F)F)c4)N3[C@@H](O)[C@H](C2)N1C)OCO5 [PM00104]
- % Inhibition (UM-UC-3 tumors; day 15): −0.8%
- % T/C on day (UM-UC-3 tumors; day 15): 100.8%
- % Inhibition (UM-UC-3 tumors; day 20): 52.8%
- % T/C on day (UM-UC-3 tumors; day 20): 47.2%
- % Inhibition (UM-UC-3 tumors; day 22): 52.2%
- % T/C on day (UM-UC-3 tumors; day 22): 47.8%
- % Inhibition (UM-UC-3 tumors; day 26): 60.2%
- % T/C on day (UM-UC-3 tumors; day 26): 39.8%
- % Inhibition (UM-UC-3 tumors; day 29): 47.4%
- % T/C on day (UM-UC-3 tumors; day 29): 50.4%
- % Inhibition (UM-UC-3 tumors; day 34): 50.7%
- % T/C on day (UM-UC-3 tumors; day 34): 49.3%
- % Inhibition (UM-UC-3 tumors; day 40): 37.1%
- % T/C on day (UM-UC-3 tumors; day 40): 62.9%
- % Inhibition (UM-UC-3 tumors; day 43): 35.1%
- % T/C on day (UM-UC-3 tumors; day 43): 64.9%
- IC50 [9]: 1 nM
- % Inhibition (BxPC-3 tumors; day 14): −0.9%
- % T/C on day (BxPC-3 tumors; day 14): 100.9%
- % Inhibition (BxPC-3 tumors; day 16): −40.3%
- % T/C on day (BxPC-3 tumors; day 16): 140.3%
- % Inhibition (BxPC-3 tumors; day 19): −26.1%
- % T/C on day (BxPC-3 tumors; day 19): 126.1%
- % Inhibition (BxPC-3 tumors; day 22): −16.5%
- % T/C on day (BxPC-3 tumors; day 22): 116.5%
- % Inhibition (BxPC-3 tumors; day 26): 7.8%
- % T/C on day (BxPC-3 tumors; day 26): 92.2%
- % Inhibition (BxPC-3 tumors; day 29): −6.3%
- % T/C on day (BxPC-3 tumors; day 29): 106.3%
- % Inhibition (BxPC-3 tumors; day 34): −16.8%
- % Inhibition (BxPC-3 tumors; day 40): −26.3%
- % T/C on day (BxPC-3 tumors; day 40): 126.3%
- IC50 ([4]; Homo sapiens): 7.2 nM
- IC50 ([5]; Homo sapiens, A549, 72 h): 7.2 nM
- IC50 ([6]; Homo sapiens): 5 nM
- IC50 ([1]; Homo sapiens, read-out: IC50): 0.00521 µg/mL (≈ 0.00734 µM)
- IC50 ([2]; Homo sapiens, read-out: IC50): 0.00534 µg/mL (≈ 0.00752 µM)
- IC50 ([3]; Homo sapiens, read-out: IC50): 0.00371 µg/mL (≈ 0.00523 µM)
- IC50 [7]: 6 nM
- IC50 [8]: 1 nM

SMILES: CC(=O)O[C@H]1C(=O)[C@@]2(C)[C@H]([C@H](OC(=O)c3ccccc3)[C@]3(O)C[C@H](OC(=O)[C@H](O)[C@@H](NC(=O)c4ccccc4)c4ccccc4)C(C)=C1C3(C)C)[C@]1(OC(C)=O)CO[C@@H]1C[C@@H]2O [paclitaxel]
- % Inhibition (UM-UC-3 tumors; day 15): 1.3%
- % T/C on day (UM-UC-3 tumors; day 15): 98.7%
- % Inhibition (UM-UC-3 tumors; day 20): 46.9%
- % T/C on day (UM-UC-3 tumors; day 20): 53.1%
- % Inhibition (UM-UC-3 tumors; day 22): 54.0%
- % T/C on day (UM-UC-3 tumors; day 22): 46.0%
- % Inhibition (UM-UC-3 tumors; day 26): 61.4%
- % Inhibition (UM-UC-3 tumors; day 29): 64.6%
- % Inhibition (UM-UC-3 tumors; day 34): 60.5%
- % Inhibition (UM-UC-3 tumors; day 40): 47.5%
- % T/C on day (UM-UC-3 tumors; day 40): 52.5%
- % Inhibition (UM-UC-3 tumors; day 43): 41.0%
- % T/C on day (UM-UC-3 tumors; day 43): 59.0%
- IC50 [9]: 1.7 nM
- IC50 ([4]; Homo sapiens): 12 nM
- IC50 ([5]; Homo sapiens, A549, 72 h): 47 nM
- IC50 ([6]; Homo sapiens): 47 nM
- IC50 [7]: 6 nM
- IC50 [8]: 70 nM
